pIC50, pKi: −log10 of the molar value. Values belong to the compound of their own block, whether it stands above or below them.
Assays:
[1] = molecular target: T1, Tyrosine-protein phosphatase non-receptor type 11 (Homo sapiens, UniProt Q06124); experiment: Inhibition of SHP2 (unknown origin)
T1 sequence (Q06124 whole entry): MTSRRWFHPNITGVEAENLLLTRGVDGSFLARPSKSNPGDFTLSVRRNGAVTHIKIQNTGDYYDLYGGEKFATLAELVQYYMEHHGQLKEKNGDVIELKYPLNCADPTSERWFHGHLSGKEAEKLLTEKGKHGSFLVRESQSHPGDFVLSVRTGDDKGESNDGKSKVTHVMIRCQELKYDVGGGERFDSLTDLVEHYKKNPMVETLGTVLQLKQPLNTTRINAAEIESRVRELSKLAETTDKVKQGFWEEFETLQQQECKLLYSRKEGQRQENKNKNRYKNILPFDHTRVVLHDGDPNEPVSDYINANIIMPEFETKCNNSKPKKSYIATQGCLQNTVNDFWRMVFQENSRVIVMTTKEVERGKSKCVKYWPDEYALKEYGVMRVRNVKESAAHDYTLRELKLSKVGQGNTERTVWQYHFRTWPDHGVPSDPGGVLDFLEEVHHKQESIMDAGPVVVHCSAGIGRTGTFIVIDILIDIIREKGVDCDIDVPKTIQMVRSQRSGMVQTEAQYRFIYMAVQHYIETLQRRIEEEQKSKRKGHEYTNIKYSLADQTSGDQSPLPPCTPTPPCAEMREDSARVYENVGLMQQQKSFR

[2] = molecular target: Tyrosine-protein phosphatase non-receptor type 11 (Homo sapiens) (UniProt Q06124); experiment: Inhibition of SHP2 (unknown origin) at 100 ug/ml; details: dose 100.0 µg/ml
[3] = molecular target: T1, Tyrosine-protein phosphatase non-receptor type 11; experiment: Inhibition of GST fused SHP2 PTP domain (unknown origin) using Thr-Arg-Asp-Ile-Tyr[PO3H2]-Glu-Thr-Asp-Tyr-Tyr as substrate incubated for 30 mins by malachite green staining based analysis
[4] = molecular target: T1, Tyrosine-protein phosphatase non-receptor type 11; experiment: Inhibition of human SHP2 (225 to 541 residues) using pNPP as substrate by microplate reader based analysis
[5] = molecular target: T1, Tyrosine-protein phosphatase non-receptor type 11; experiment: Inhibition of human His6-tagged wild type SHP2 PTP domain using pNPP as substrate by absorbance based analysis
[6] = molecular target: Tyrosine-protein phosphatase non-receptor type 6 (Homo sapiens, UniProt P29350); experiment: Inhibition of SHP1 (unknown origin)
Chain of Tyrosine-protein phosphatase non-receptor type 6 (P29350 whole entry): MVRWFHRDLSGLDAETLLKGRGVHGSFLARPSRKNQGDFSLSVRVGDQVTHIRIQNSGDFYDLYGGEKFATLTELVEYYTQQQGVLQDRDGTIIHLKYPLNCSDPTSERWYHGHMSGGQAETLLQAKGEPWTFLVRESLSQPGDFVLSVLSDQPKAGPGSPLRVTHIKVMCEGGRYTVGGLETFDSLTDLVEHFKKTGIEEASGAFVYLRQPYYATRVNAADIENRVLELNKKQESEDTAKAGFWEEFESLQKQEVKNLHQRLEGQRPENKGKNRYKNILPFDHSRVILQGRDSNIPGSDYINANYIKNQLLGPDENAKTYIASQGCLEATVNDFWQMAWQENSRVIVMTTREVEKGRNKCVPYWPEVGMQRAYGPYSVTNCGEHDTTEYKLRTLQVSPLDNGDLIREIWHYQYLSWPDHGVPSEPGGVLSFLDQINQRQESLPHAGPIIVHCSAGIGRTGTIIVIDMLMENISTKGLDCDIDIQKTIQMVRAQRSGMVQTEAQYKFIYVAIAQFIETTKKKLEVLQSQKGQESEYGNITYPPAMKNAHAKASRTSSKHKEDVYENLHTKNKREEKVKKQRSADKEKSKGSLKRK

BaF3 = experiment: Antiproliferative activity against mouse BaF3 cells assessed as cell growth inhibition measured after 48 hrs by MTS assay; type: functional, cell-based; details: BaF3, 48 h
[7] = molecular target: T1, Tyrosine-protein phosphatase non-receptor type 11; experiment: Inhibition of GST fused SHP2 PTP domain (unknown origin) using EFpYAEVGRSPPDPAK peptide as substrate incubated for 30 mins by malachite green staining based analysis
[8] = molecular target: T1, Tyrosine-protein phosphatase non-receptor type 11; experiment: Inhibition of SHP2 (unknown origin) using pNPP as substrate by spectrophotometer analysis
[9] = molecular target: T2, Receptor-type tyrosine-protein phosphatase O (Homo sapiens, UniProt Q16827); experiment: Binding affinity to GLEPP1 (unknown origin) assessed as inhibition constant
T2 sequence (Q16827 whole entry): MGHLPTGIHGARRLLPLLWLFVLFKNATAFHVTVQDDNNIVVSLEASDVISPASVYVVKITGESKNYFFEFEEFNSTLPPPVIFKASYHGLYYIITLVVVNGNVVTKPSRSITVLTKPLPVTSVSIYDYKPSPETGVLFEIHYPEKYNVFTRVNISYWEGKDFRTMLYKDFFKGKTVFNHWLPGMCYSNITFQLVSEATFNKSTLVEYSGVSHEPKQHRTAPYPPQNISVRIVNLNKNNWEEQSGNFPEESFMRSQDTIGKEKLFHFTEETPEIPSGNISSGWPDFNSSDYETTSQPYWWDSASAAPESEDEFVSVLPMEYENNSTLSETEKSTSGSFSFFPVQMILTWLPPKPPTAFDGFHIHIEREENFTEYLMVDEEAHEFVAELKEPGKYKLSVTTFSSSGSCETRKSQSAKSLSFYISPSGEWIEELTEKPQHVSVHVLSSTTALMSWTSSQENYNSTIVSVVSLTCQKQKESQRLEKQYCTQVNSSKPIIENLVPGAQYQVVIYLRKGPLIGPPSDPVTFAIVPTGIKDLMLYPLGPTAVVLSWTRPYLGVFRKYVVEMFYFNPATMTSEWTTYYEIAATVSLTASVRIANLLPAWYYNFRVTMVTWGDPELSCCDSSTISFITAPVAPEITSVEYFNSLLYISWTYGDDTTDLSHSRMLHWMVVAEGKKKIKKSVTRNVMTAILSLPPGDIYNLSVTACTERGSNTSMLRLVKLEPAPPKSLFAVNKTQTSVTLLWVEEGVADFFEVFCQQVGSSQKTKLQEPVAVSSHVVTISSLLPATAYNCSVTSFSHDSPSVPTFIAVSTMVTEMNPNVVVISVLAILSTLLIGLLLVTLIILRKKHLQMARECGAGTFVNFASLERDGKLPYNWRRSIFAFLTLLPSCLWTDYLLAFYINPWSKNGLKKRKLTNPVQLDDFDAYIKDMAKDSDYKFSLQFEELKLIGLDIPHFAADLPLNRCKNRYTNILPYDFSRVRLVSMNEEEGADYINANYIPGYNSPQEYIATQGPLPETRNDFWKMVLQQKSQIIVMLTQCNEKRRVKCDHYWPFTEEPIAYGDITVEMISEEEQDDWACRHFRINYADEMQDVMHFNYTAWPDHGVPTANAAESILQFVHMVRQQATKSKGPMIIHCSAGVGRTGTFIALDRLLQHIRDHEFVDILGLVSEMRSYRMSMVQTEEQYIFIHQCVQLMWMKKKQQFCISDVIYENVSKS

[10] = molecular target: T1, Tyrosine-protein phosphatase non-receptor type 11; experiment: Binding affinity to SHP2 (unknown origin) assessed as inhibition constant

Compound: O=C1C=CC(=O)C(c2cc(Cl)ccc2Cl)=C1
pIC50 [1]: 6.40

Compound: Cc1cc(C)c2c(c1)[nH]c1nnc(SCC(=O)NCc3cccs3)nc12
pIC50 [3]: 4.86

Compound: COc1cccc(-c2nnc3n(Cc4ccc(C(=O)N5CCC[C@H]5C(=O)O)cc4Cl)c(=O)c4ccccc4n23)c1O
pIC50 [1]: 4.72

Compound: O=C(CCn1cnc2sc3c(c2c1=O)CCCCC3)Nc1ccccc1[N+](=O)[O-]
pIC50 [6]: < 4.00
pIC50 (BaF3): 4.97
pIC50 [7]: 5.00

Compound: C=C/C(=C/C(=O)C[C@H](C)C[C@@H](C)CC[C@H](O)[C@H](C)C(=O)C[C@@H](O)[C@H](C)[C@@H](C)OC(=O)C[C@@H](O)/C(C(=O)O)=C(\C)C(=O)O)CC
pIC50 [8]: 5.54

Compound: CCCCCCN(Cc1ccc(C#Cc2ccc(CCCC)cc2)cc1)c1ccc(O)c(C(=O)O)c1
pKi [9]: 6.91
pKi [10]: 6.19

The next lines start with the values.

pIC50 [1]: 4.68
Compound: O=C(O)c1ccc(O)c(-c2nnc3n(Cc4ccccc4Cl)c(=O)c4ccccc4n23)c1

inhibition [2]: 99%
Compound: (3R,4S,5R)-1-(((3S,4R,5R)-3-(carboxymethyl)-1-hydroxy-5-((R)-1-hydroxypropan-2-yl)-2,6,7-trioxa-1l5-stibabicyclo[2.2.1]heptan-1-yl)oxy)-5-((R)-1,2-dihydroxyethyl)-1-hydroxy-2,6,7-trioxa-1l5-stibabicyclo[2.2.1]heptane-3-carboxylic acid

pIC50 [4]: 6.20
Compound: CCOC(=O)c1ccc(N2N=C(c3ccc([N+](=O)[O-])cc3)/C(=N/Nc3ccc(S(=O)(=O)O)cc3)C2=O)cc1

pIC50 [5]: 4.46
Compound: C=CC(=O)Nc1ccnc2ccccc12

Source: ChEMBL document CHEMBL5233224, “Therapeutic potential of targeting SHP2 in human developmental disorders and cancers” (Eur J Med Chem, 2020)
